{
  "source": "patent US20240299362A1",
  "about": "“EXOSOME PACKAGING AND TARGETED AUTOPHAGY” (University of Ottawa, priority 2017, published 2024)",
  "key": {"Atg5^−/− MEF [1]": {"test_system": "Atg5^−/− MEF", "assay": "Exosome production (nanoparticle tracking, dynamic light scattering, Western blot), Example 1", "type": "cell-based, mouse", "conditions": "Chloroquine 100 μM 16 h, NH4Cl 20 mM 30 min, Concanamycin, siRNA", "description": "Exosomes were enriched by differential centrifugation as previously described (Thery et al., 2006). Briefly, cells were cultured in media containing 10% FBS previously depleted of exosomes by centrifugation at 100 000 g for 16 h (Thery et al., 2006). To purify exosomes, supernatant from cell cultures was centrifuged at 300 g (10 min), 2000 g (10 min) and 10,000 g (30 min, SW32 rotor). At each step the supernatant was recovered. After centrifugation at 100 000 g (1 h 10 min, SW32 rotor) the supernatant was removed and the pellet was resuspended. The pellet was washed in PBS by a final centrifugation at 100 000 g (20 min, TLA100.3 rotor). The exosome-enriched pellet was re-suspended in PBS for further analyses.\nPreparations of enriched exosomes were analyzed using either a Nanosight (FIG. 1A,C) or a ParticleMetrix Zetaview Nanoparticle tracking instrument (all other graphs). […]\nThe Zeta View Nanoparticle Tracking instrument (ParticleMetrix) is calibrated for experiments following every instrument start-up. […] If the sample falls within the acceptable reading concentration range, video acquisition and analysis was performed using the following parameters. Acquisition Parameters: Sensitivity (85), Shutter speed (40), Frame rate per second (30), Resolution (Highest), Positions measured (11). […]\nThe analysis reports containing the particle size (nm) and concentration (particles/ml) were generated automatically. The particles between 45 nm and 105 nm were summed to quantify exosome-sized particles. In experiments in FIG. 5N,O measuring exosome production after treating cells with NH4Cl or Chloroquine for short time periods, background readings from exosome-depleted media alone were subtracted. […]"}, "Atg5^−/− MEF [2]": {"test_system": "Atg5^−/− MEF", "assay": "Exosome production (dynamic light scattering, Western blot), Example 2", "type": "cell-based, mouse", "conditions": "BAF or ConA 12 h", "procedure": "(§1) Exosomes were enriched by differential centrifugation as previously described (Thery et al., 2006). Briefly, MEF or MDA-MB-231 cells were cultured in media containing FBS depleted of exosomes by centrifugation at 100,000 g for 16 h (Thery et al., 2006). To purify exosomes supernatant from cell cultures was centrifuged at 400 g (7 min), 2000 g (10 min) and 10,000 g (30 min, SW32 rotor). At each step the supernatant was recovered. After centrifugation at 100,000 g (1 h 10 min, SW32 rotor) the supernatant was removed and the pellet was resuspended. The pellet was washed in PBS by a final centrifugation at 100,000 g (20 min, TLA100.3 rotor). The exosome-enriched pellet was re-suspended in PBS for further analyses.\n(§2) Preparations of enriched exosomes were analyzed by dynamic light scattering on a Protein Solutions Dynapro Instrument using Dynamics V6 software. Data were acquired every 10 seconds at 4° C. and 10% laser power for at least 200 seconds per sample. The intensity (Cnt/s) and size (nm) were generated automatically by the instrument.\nPreparations of enriched exosomes were analyzed using a Nanosight LM10 instrument with Nanoparticle Tracking Analysis software Version 2.3. Measurement temperature was 22° C. and time setting was 90 seconds. The analysis conditions were set as: Blur 3×3, Detection Threshold 3, Min Track Length 9, and Min Expected Size 30 nm. […]"}, "V0-ATPase complex": {"target": "T1, V0-ATPase complex (Mus musculus, UniProt P63082)", "T1 construct": "endogenous in cells; MEF inferred)", "T1 sequence (P51863 whole entry)": "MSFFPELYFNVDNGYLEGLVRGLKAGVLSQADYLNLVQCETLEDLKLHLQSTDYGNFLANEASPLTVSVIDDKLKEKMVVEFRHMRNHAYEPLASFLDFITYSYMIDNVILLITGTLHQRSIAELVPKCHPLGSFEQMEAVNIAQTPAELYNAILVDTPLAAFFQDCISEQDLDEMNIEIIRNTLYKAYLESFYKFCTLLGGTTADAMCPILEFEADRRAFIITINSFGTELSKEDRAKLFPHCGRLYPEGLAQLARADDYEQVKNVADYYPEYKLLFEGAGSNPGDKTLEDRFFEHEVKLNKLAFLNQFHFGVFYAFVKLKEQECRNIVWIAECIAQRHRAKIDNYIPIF", "T1 sequence (Q9Z1G4 whole entry, further chain)": "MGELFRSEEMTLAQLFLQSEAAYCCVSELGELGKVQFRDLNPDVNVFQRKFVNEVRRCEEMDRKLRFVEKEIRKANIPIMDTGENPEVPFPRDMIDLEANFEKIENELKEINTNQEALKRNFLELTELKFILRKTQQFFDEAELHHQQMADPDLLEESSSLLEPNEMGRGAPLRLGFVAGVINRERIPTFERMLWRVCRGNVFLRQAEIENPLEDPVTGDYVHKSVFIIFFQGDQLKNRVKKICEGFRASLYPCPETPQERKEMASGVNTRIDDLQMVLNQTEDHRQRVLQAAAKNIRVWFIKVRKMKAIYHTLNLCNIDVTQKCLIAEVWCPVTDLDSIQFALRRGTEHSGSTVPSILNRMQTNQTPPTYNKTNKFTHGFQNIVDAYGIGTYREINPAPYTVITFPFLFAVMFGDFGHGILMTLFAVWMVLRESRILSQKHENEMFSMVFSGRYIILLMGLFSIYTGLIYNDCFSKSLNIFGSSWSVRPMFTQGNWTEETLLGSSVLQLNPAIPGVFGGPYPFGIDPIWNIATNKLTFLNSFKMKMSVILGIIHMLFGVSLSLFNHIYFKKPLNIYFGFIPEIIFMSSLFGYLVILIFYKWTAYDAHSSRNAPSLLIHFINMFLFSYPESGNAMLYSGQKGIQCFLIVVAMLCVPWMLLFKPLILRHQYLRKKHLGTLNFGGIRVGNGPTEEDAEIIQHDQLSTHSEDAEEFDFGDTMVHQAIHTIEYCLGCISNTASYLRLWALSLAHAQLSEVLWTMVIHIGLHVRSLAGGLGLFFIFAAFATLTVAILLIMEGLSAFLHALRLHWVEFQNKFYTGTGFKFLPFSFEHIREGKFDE", "T1 sequence (Q91V37 whole entry, further chain)": "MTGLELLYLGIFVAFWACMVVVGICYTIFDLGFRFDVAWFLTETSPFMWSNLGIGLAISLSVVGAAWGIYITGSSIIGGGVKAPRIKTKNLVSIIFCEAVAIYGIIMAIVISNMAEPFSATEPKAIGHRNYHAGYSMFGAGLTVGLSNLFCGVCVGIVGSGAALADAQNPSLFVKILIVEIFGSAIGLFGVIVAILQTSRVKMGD", "T1 sequence (P63082 whole entry)": "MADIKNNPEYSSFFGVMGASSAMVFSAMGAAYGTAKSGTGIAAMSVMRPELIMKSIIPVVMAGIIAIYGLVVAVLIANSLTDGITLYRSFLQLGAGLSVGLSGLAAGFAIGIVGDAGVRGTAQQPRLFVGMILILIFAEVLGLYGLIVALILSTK", "assay": "Lysotracker staining of cells with V0-ATPase inhibitors", "type": "cell-based", "conditions": "MEF; 12 h treatment", "text": "If increased MVB acidification in Atg5^−/− cells causes the drop in exosome release, blocking acidification of MVB may promote exosome release."}, "stress granules (G3BP1+)": {"test_system": "stress granules (G3BP1+)", "assay": "Stress granules remaining with scFv-LC3 fusion with or without mTOR inhibitor INK128", "type": "cell-based", "conditions": "arsenite 1 h, recovery 30 min, G3BP1+ staining", "procedure": "Nucleic acids encoding the fusion constructs were stably transduced into cells using lentivirus to generate stable expression using the CMV promoter. Cells were cultured in Lonza Ultraculture medium for 24 h and exosomes were harvested by tangential flow filtration concentration and dialysis on a 750 kDa pore size. Exosomes were then incubated with target cells between 2-24 h. After this time point cells were lysed and levels of cytoplasmic TDP-43 were measured by western blot after elimination of nuclei. […] for 30 min and cells were fixed for immunofluorescence to measure the persistence of stress granules using antibodies targeting G3BP1, PABP or DDX3. The number of stress granules were compared to fusions like scFv VH7 with and without LC3. In some experiments cells were pre-treated for 2-24 h with mTOR inhibitors to induce autophagy.\nExperiments were performed to assess whether elimination of anti-TDP-43 VH7 scFv targets by autophagy, triggered by scFv-LC3 fusion constructs, could be further enhanced by treatment with an autophagy-activating agent. In this example, mTOR inhibitor INK128 was used as the autophagy-activating agent.\nCells were transfected with scFv versus TDP-43 fused to LC3, and treated or not treated with the mTOR inhibitor INK128 to assess autophagy activation. […]"}, "recombinant LC3 [3]": {"test_system": "recombinant LC3", "conditions": "10 nmoles peptide, 100 ng recombinant LC3", "procedure": "(SEQ ID NO: 20). Fifteen μl of Dynabeads® MyOne™ Streptavidin T1 (Cat #65601, ThermoFisher) were washed with PBS, then 10 nmoles of biotinylated peptides and 100 ng of recombinant LC3 were added. The mixture was rotated at 4 C over night. The beads were then washed with PBS 3 times and collected for further western analysis."}, "recombinant LC3 [4]": {"test_system": "recombinant LC3", "conditions": "competitive excess of peptide; cell lysate", "procedure": "In brief, 0.5 μg of His-tagged recombinant LC3 (His-tag, Cat #ADI-APR-100-0200, Enzo Life Sciences) was rotated in 50 μl with 5 μl of His-tagged Dynabeads (Cat #10103D, Thermofisher) in a binding/wash buffer (50 mM Sodium Phosphate, pH 8.0, 150 mM NaCl, 0.01% Tween®-20, 0.5% Triton X-100) at room temperature (RT) for 10 min. Then 150 μl of binding/wash buffer containing 5% BSA was added to the tubes and rotated for 5 minutes. Tubes were placed on a magnet and supernatant discarded. Cell lysate (100 ul, 150 ug) collected in Pull-down Buffer (3.25 mM Sodium phosphate pH 7.4, 70 mM NaCl, 0.01% Tween®-20, 0.5% Triton X-100) was incubated on a roller for 10 min. Supernatant was discarded and beads were washed 4 times with 300 μl Binding/Wash Buffer. His-LC3 was eluted with 150 mM Imidazole, 50 mM Sodium phosphate pH 8.0, 300 mM NaCl, 0.01% Tween®-20 with gentle shaking for 5 min. Supernatants were separated from beads on a magnet. The median intensities of bands for p62, ATP6V1E1 and background were quantified over 3 independent experiments using ImageQuantTL (GE Healthcare).\nExperiments with competitive peptides were performed as above, except 50 μmoles of peptide was added during incubation with cell lysate. […] (SEQ ID NO: 20)."}, "wild-type MEF": {"test_system": "wild-type MEF", "assay": "Exosome production (dynamic light scattering, Western blot) with pp242", "type": "cell-based, mouse", "conditions": "pp242 1 μM", "procedure": "as §1, §2"}, "exosomes": {"test_system": "exosomes", "assay": "Packaging of LC3 fusion proteins into exosomes (luciferase light, Western blot of exosomes)", "type": "cell-based", "text": "FIG. 28 D and E show Western blots of exosomes transfected with Luciferase or Luciferase-LC3 fusion (D), or dsRed or dsRed-LC3 fusion (E). […] The scFv in this experiment was anti-TDP-43 VH7 antibody scFv. Detection of the fusion was by Western blot with anti-LC3 antibody or antibody vs. HA tag incorporated into the linker region in the fusion. […] In FIG. 29 C, expression of scFv-LC3 construct in cells was achieved using lentivirus. […] In FIG. 29 C, cells were expressing anti-TDP-43 antibody scFv clone Vh7. […] The inventors hypothesized that exosomes may deliver intrabody-LC3 chimeras with high efficiency to tissues like liver, small intestine and kidney (IV), and if injected (for example) into the spinal cord (as ASOs or AAV in patients in neurodegeneration), throughout the spinal cord and the brain. […]\nNucleic acids encoding the fusion constructs were stably transduced into cells using lentivirus to generate stable expression using the CMV promoter. […] After this time point cells were lysed and levels of cytoplasmic TDP-43 were measured by western blot after elimination of nuclei. […]\nThe data are for 3 scFv fused to LC3 derived from anti-TDP-43 VH7, anti-TDP-43 41D1, and anti-Tau 4E4. […] Cells were transduced with scFv-LC3 conjugates, and exosomes were purified from these and analyzed by Western blot. […]"}},
  "note": "No end group written: not given here. *: point of attachment. Biotin = O=C1N[C@H]2[C@H](CS[C@H]2CCCCC(=O)*)N1",
  "data": [
    {"molecule": "Cl.N", "note": "[NH4Cl]", "values": [
      {"measurement": "exosome production in Atg5^−/− cells", "setting": "Atg5^−/− MEF [1]", "result": "rescued exosome production"}
    ]},
    {"molecule": "Concanamycin A", "values": [
      {"measurement": "exosome production of Atg5^−/− cells", "setting": "Atg5^−/− MEF [2]", "result": "restored exosome production"},
      {"measurement": "staining of cells with Lysotracker", "setting": "V0-ATPase complex", "result": "abrogated staining of cells with Lysotracker"},
      {"measurement": "exosome production in Atg5^−/− cells", "setting": "Atg5^−/− MEF [1]", "result": "rescued exosome production"}
    ]},
    {"molecule": "CC(C)n1nc(-c2ccc3oc(N)nc3c2)c2c(N)ncnc21", "note": "[INK128]", "values": [
      {"measurement": "% of stress granules remaining", "setting": "stress granules (G3BP1+)", "result": "did not have a measureable effect"}
    ]},
    {"molecule": "biotin-SGGDDDWTHLSS [p62 LIR motif peptide]", "values": [
      {"measurement": "pulldown of recombinant LC3 by biotinylated peptide", "setting": "recombinant LC3 [3]", "result": "pulled down recombinant LC3"},
      {"measurement": "competition of ATP6V1E1 pulldown by recombinant LC3", "setting": "recombinant LC3 [4]", "result": "had no effect"},
      {"measurement": "competition of p62 pulldown by recombinant LC3", "setting": "recombinant LC3 [4]", "result": "competed with endogenous p62 binding"}
    ]},
    {"molecule": "CCN(CC)CCCC(C)Nc1ccnc2cc(Cl)ccc12", "note": "(centres unmarked) [Chloroquine]", "values": [
      {"measurement": "exosome production in Atg5^−/− cells", "setting": "Atg5^−/− MEF [1]", "result": "rescued exosome production"}
    ]},
    {"molecule": "CC(C)n1nc(-c2cc3cc(O)ccc3[nH]2)c2c(N)ncnc21", "note": "[pp242]", "values": [
      {"measurement": "exosome production", "setting": "wild-type MEF", "result": "increased exosome production"}
    ]},
    {"molecule": "Biotin-RCRKAILPLQKA [control mutated peptide]", "values": [
      {"measurement": "pulldown of recombinant LC3 by biotinylated peptide", "setting": "recombinant LC3 [3]", "result": "bound at background levels"}
    ]},
    {"molecule": "Biotin-RCRKQDFPLVKA [putative ATP6V1E1 LIR motif peptide]", "values": [
      {"measurement": "pulldown of recombinant LC3 by biotinylated peptide", "setting": "recombinant LC3 [3]", "result": "bound at background levels"},
      {"measurement": "competition of ATP6V1E1 pulldown by recombinant LC3", "setting": "recombinant LC3 [4]", "result": "did not affect binding"},
      {"measurement": "competition of p62 pulldown by recombinant LC3", "setting": "recombinant LC3 [4]", "result": "did not affect binding"}
    ]},
    {"molecule": "HJ8.5-LC3a: anti-Tau scFv HJ8.5 fused via linker and HA tag to LC3a (SEQ ID NO: 57)", "values": [
      {"measurement": "packaging of construct into exosomes", "setting": "exosomes", "result": "packaged into exosomes"}
    ]},
    {"molecule": "CO/C1=C\\C(C)=C\\[C@@H](C)[C@@H](O)[C@@H](C)C/C(C)=C/C=C/[C@H](OC)[C@@H]([C@@H](C)[C@@H](O)[C@H](C)[C@@]2(O)C[C@@H](O)[C@H](C)[C@@H](C(C)C)O2)OC1=O", "note": "[Bafilomycin A1]", "values": [
      {"measurement": "exosome production of Atg5^−/− cells", "setting": "Atg5^−/− MEF [2]", "result": "restored exosome production"},
      {"measurement": "staining of cells with Lysotracker", "setting": "V0-ATPase complex", "result": "abrogated staining of cells with Lysotracker"}
    ]}
  ]
}
